# Laboratory results taken from article PMC5218480 (PLoS ONE, 2017).
# System: MV-4-11 cells
# Test: Gene expression microarray analysis (Affymetrix PrimeView) and GSEA
# Assay type: cell-based, human
# Design: RFU PODN (11730768_x_at) / Fold change /veh PODN (11730768_x_at) / RFU LINC00158 (11744669_a_at) / Fold change /veh LINC00158 (11744669_a_at) / RFU DUSP10 (11751237_a_at) / Fold change /veh DUSP10 (11751237_a_at) / RFU ID3 (11757404_x_at) / Fold change /veh ID3 (11757404_x_at) / RFU PLEKHG5 (11737974_s_at) / Fold change /veh PLEKHG5 (11737974_s_at) / RFU LRRC4B (11730491_at) / Fold change /veh LRRC4B (11730491_at) / RFU GIMAP4 (11747438_a_at) / Fold change /veh GIMAP4 (11747438_a_at) / RFU KRT8 (11758183_x_at) / Fold change /veh KRT8 (11758183_x_at) / RFU CNN1 (11734310_a_at) / Fold change /veh CNN1 (11734310_a_at) / RFU VPS37D (11726825_at) / Fold change /veh VPS37D (11726825_at) / RFU C10orf10 (11716522_x_at) / Fold change /veh C10orf10 (11716522_x_at) / RFU KIR2DL2 /// KIR2DL4 /// KIR2DL5A /// KIR2DL5B /// KIR2DS1 /// KIR2DS2 /// KIR2DS3 /// KIR2DS4 /// KIR3DL3 /// KIR3DL3 /// KIR3DS1 (11738374_at) / Fold change /veh KIR2DL2 /// KIR2DL4 /// KIR2DL5A /// KIR2DL5B /// KIR2DS1 /// KIR2DS2 /// KIR2DS3 /// KIR2DS4 /// KIR3DL3 /// KIR3DL3 /// KIR3DS1 (11738374_at) / RFU C1QL1 (11718748_at) / Fold change /veh C1QL1 (11718748_at) / RFU TMPRSS4 (11747572_a_at) / Fold change /veh TMPRSS4 (11747572_a_at) / RFU HAMP (11756126_x_at) / Fold change /veh HAMP (11756126_x_at) / RFU RNFT2 (11725882_a_at) / Fold change /veh RNFT2 (11725882_a_at) / RFU NR4A2 (11747474_a_at) / Fold change /veh NR4A2 (11747474_a_at) / RFU ABCC12 (11746883_a_at) / Fold change /veh ABCC12 (11746883_a_at) / RFU TMEM136 (11760407_x_at) / Fold change /veh TMEM136 (11760407_x_at) / RFU CLDN22 /// WWC2 (11732394_at) / Fold change /veh CLDN22 /// WWC2 (11732394_at) / RFU HLA-DPB1 (11760878_x_at) / Fold change /veh HLA-DPB1 (11760878_x_at) / RFU SPINT1 (11716480_a_at) / Fold change /veh SPINT1 (11716480_a_at) / RFU GAP43 (11754022_s_at) / Fold change /veh GAP43 (11754022_s_at) / RFU A4GNT (11735810_at) / Fold change /veh A4GNT (11735810_at) / RFU PRB3 (11715151_x_at) / Fold change /veh PRB3 (11715151_x_at) / RFU TUBB4B (11761932_at) / Fold change /veh TUBB4B (11761932_at) / RFU CAPN14 (11732068_a_at) / Fold change /veh CAPN14 (11732068_a_at) / RFU TMCC2 (11721928_a_at) / Fold change /veh TMCC2 (11721928_a_at) / RFU IRGQ (11745062_a_at) / Fold change /veh IRGQ (11745062_a_at) / RFU FAM174B (11720279_a_at) / Fold change /veh FAM174B (11720279_a_at) / RFU TMPRSS4 (11748680_a_at) / Fold change /veh TMPRSS4 (11748680_a_at) / RFU FAM212B (11763350_a_at) / Fold change /veh FAM212B (11763350_a_at) / RFU PLEKHG5 (11743358_a_at) / Fold change /veh PLEKHG5 (11743358_a_at) / RFU ZSCAN30 (11745921_a_at) / Fold change /veh ZSCAN30 (11745921_a_at) / RFU CMKLR1 (11741424_a_at) / Fold change /veh CMKLR1 (11741424_a_at) / RFU LOC101060620 /// MAPK8IP1 (11723275_at) / Fold change /veh LOC101060620 /// MAPK8IP1 (11723275_at) / RFU SPTSSB (11747773_x_at) / Fold change /veh SPTSSB (11747773_x_at) / RFU PRSS12 (11739890_at) / Fold change /veh PRSS12 (11739890_at) / RFU BIN1 (11741810_x_at) / Fold change /veh BIN1 (11741810_x_at) / RFU WNT11 (11732464_a_at) / Fold change /veh WNT11 (11732464_a_at) / RFU C10orf10 (11716521_a_at) / Fold change /veh C10orf10 (11716521_a_at) / RFU C5orf56 (11738089_at) / Fold change /veh C5orf56 (11738089_at) / RFU CYB561 (11721691_x_at) / Fold change /veh CYB561 (11721691_x_at) / RFU ANKRD19P (11752326_a_at) / Fold change /veh ANKRD19P (11752326_a_at) / RFU OR2T12 /// OR2T33 /// OR2T8 (11738714_s_at) / Fold change /veh OR2T12 /// OR2T33 /// OR2T8 (11738714_s_at) / RFU VCAN (11748164_a_at) / Fold change /veh VCAN (11748164_a_at) / RFU JSRP1 (11732532_at) / Fold change /veh JSRP1 (11732532_at) / RFU KRTAP10-11 (11738290_x_at) / Fold change /veh KRTAP10-11 (11738290_x_at) / RFU MYO3A (11730013_a_at) / Fold change /veh MYO3A (11730013_a_at) / RFU EBF3 (11725865_a_at) / Fold change /veh EBF3 (11725865_a_at) / RFU CAMK2N1 (11719241_x_at) / Fold change /veh CAMK2N1 (11719241_x_at) / RFU C5orf56 (11738088_a_at) / Fold change /veh C5orf56 (11738088_a_at) / RFU OLFML3 (11715873_a_at) / Fold change /veh OLFML3 (11715873_a_at) / RFU LOC100653217 /// NTM (11731650_a_at) / Fold change /veh LOC100653217 /// NTM (11731650_a_at) / RFU MAPK11 (11762145_a_at) / Fold change /veh MAPK11 (11762145_a_at) / RFU FIZ1 (11724087_x_at) / Fold change /veh FIZ1 (11724087_x_at) / RFU OASL (11726364_x_at) / Fold change /veh OASL (11726364_x_at) / RFU SOX15 (11748057_x_at) / Fold change /veh SOX15 (11748057_x_at) / RFU CD79A (11719716_a_at) / Fold change /veh CD79A (11719716_a_at) / RFU HIST1H1D (11736915_at) / Fold change /veh HIST1H1D (11736915_at) / RFU CASKIN2 (11723855_a_at) / Fold change /veh CASKIN2 (11723855_a_at) / RFU LOC730098 (11760151_x_at) / Fold change /veh LOC730098 (11760151_x_at) / RFU OR4N2 (11742367_at) / Fold change /veh OR4N2 (11742367_at) / RFU PRRT2 (11749266_a_at) / Fold change /veh PRRT2 (11749266_a_at) / RFU SNX32 (11753110_a_at) / Fold change /veh SNX32 (11753110_a_at) / RFU CDHR5 (11726645_a_at) / Fold change /veh CDHR5 (11726645_a_at) / RFU RCAN1 (11760418_a_at) / Fold change /veh RCAN1 (11760418_a_at) / RFU FAM167A (11723789_a_at) / Fold change /veh FAM167A (11723789_a_at) / RFU FAM26E (11764081_at) / Fold change /veh FAM26E (11764081_at) / RFU ISYNA1 (11749810_s_at) / Fold change /veh ISYNA1 (11749810_s_at) / RFU ACY1 (11761880_at) / Fold change /veh ACY1 (11761880_at) / RFU 11764098_at / Fold change /veh 11764098_at / RFU SAMD14 (11745864_x_at) / Fold change /veh SAMD14 (11745864_x_at) / RFU NPB (11741838_a_at) / Fold change /veh NPB (11741838_a_at) / RFU TMPRSS6 (11731388_a_at) / Fold change /veh TMPRSS6 (11731388_a_at) / RFU KRTAP10-2 (11738614_at) / Fold change /veh KRTAP10-2 (11738614_at) / RFU ARHGAP8 /// PRR5-ARHGAP8 (11727945_x_at) / Fold change /veh ARHGAP8 /// PRR5-ARHGAP8 (11727945_x_at) / RFU KRTAP5-7 /// NADSYN1 (11734609_at) / Fold change /veh KRTAP5-7 /// NADSYN1 (11734609_at) / RFU RASL12 (11751679_a_at) / Fold change /veh RASL12 (11751679_a_at) / RFU CDKN2B (11736163_a_at) / Fold change /veh CDKN2B (11736163_a_at) / RFU PRF1 (11729649_at) / Fold change /veh PRF1 (11729649_at) / RFU, ZNF638 /// ZNF638-IT1 / Fold change vs veh, ZNF638 /// ZNF638-IT1 / RFU, PANK3 / Fold change vs veh, PANK3 / RFU, SH3YL1 / Fold change vs veh, SH3YL1 / RFU, ZEB2 / Fold change vs veh, ZEB2 / RFU, NRIP1 / Fold change vs veh, NRIP1 / RFU, PTTG1IP / Fold change vs veh, PTTG1IP / RFU, CAPN2 / Fold change vs veh, CAPN2 / RFU, MED14 / Fold change vs veh, MED14 / RFU, SNORA58 / Fold change vs veh, SNORA58 / RFU, C1orf63 / Fold change vs veh, C1orf63 / RFU, LRRFIP1 / Fold change vs veh, LRRFIP1 / RFU, NDUFAF7 / Fold change vs veh, NDUFAF7 / RFU, SLC12A2 / Fold change vs veh, SLC12A2 / RFU, IBTK / Fold change vs veh, IBTK / RFU, ESF1 / Fold change vs veh, ESF1 / Fold change vs veh, TMEM50B / RFU, TAOK1 / Fold change vs veh, TAOK1 / RFU, ACBD3 / Fold change vs veh, ACBD3 / RFU, TMA16 / Fold change vs veh, TMA16 / RFU, RWDD3 / Fold change vs veh, RWDD3 / RFU, BCAT1 / Fold change vs veh, BCAT1 / RFU, EDEM3 / Fold change vs veh, EDEM3 / RFU, TMEM33 / Fold change vs veh, TMEM33 / RFU, WDR75 / Fold change vs veh, WDR75 / RFU, AHCTF1 / Fold change vs veh, AHCTF1 / RFU, TFRC / Fold change vs veh, TFRC / RFU, ZDHHC17 / Fold change vs veh, ZDHHC17 / RFU, NOM1 / Fold change vs veh, NOM1 / RFU, ARL8B / Fold change vs veh, ARL8B / RFU, ZBTB11 / Fold change vs veh, ZBTB11 / RFU, TAMM41 / Fold change vs veh, TAMM41 / RFU, KIAA1704 /// LOC100996395 / Fold change vs veh, KIAA1704 /// LOC100996395 / RFU, ING1 / Fold change vs veh, ING1 / RFU, TRMT61B / Fold change vs veh, TRMT61B / RFU, FUBP3 / Fold change vs veh, FUBP3 / RFU, TP53 / Fold change vs veh, TP53 / RFU, TNKS2 / Fold change vs veh, TNKS2 / RFU, ZFP14 / Fold change vs veh, ZFP14 / RFU, ACTR2 / Fold change vs veh, ACTR2 / RFU, PPP3R1 / Fold change vs veh, PPP3R1 / RFU, PIK3R1 / Fold change vs veh, PIK3R1 / RFU, HNRNPA1 / Fold change vs veh, HNRNPA1 / RFU, RNF170 / Fold change vs veh, RNF170 / RFU, ZNF28 / Fold change vs veh, ZNF28 / RFU, RNGTT / Fold change vs veh, RNGTT / RFU, OGT / Fold change vs veh, OGT / RFU, BRD1 / Fold change vs veh, BRD1 / RFU, MARS / Fold change vs veh, MARS / RFU, ZNF655 / Fold change vs veh, ZNF655 / RFU, FAHD1 / Fold change vs veh, FAHD1 / RFU, BDP1 / Fold change vs veh, BDP1 / RFU, LRRCC1 / Fold change vs veh, LRRCC1 / RFU, ARID1A / Fold change vs veh, ARID1A / RFU, ZNF146 / Fold change vs veh, ZNF146 / RFU, ZNF330 / Fold change vs veh, ZNF330 / RFU, GPN3 / Fold change vs veh, GPN3 / RFU, C9orf123 / Fold change vs veh, C9orf123 / RFU, N4BP2L2 / Fold change vs veh, N4BP2L2 / RFU, ARFIP1 / Fold change vs veh, ARFIP1 / RFU, FAM179B / Fold change vs veh, FAM179B / RFU, BCL10 / Fold change vs veh, BCL10 / RFU, UHRF1BP1L / Fold change vs veh, UHRF1BP1L / RFU, BET1 / Fold change vs veh, BET1 / RFU, CNOT2 / Fold change vs veh, CNOT2 / RFU, ZNF268 / Fold change vs veh, ZNF268 / Fold change vs veh, ZNF507 / RFU, DGCR2 / Fold change vs veh, DGCR2 / RFU, WDSUB1 / Fold change vs veh, WDSUB1 / Fold change vs veh, HSP90B1 /// MIR3652 / RFU, ADSS / Fold change vs veh, ADSS / RFU, GK / Fold change vs veh, GK / RFU, ZNF148 / Fold change vs veh, ZNF148 / RFU, TAF9 / Fold change vs veh, TAF9 / RFU, SLC1A5 / Fold change vs veh, SLC1A5 / RFU, SLMO2 / Fold change vs veh, SLMO2 / RFU, ABCC4 / Fold change vs veh, ABCC4 / RFU, LOC101060439 /// RAP1B / Fold change vs veh, LOC101060439 /// RAP1B / RFU, RFX7 / Fold change vs veh, RFX7 / RFU, GTPBP10 / Fold change vs veh, GTPBP10 / RFU, CNEP1R1 / Fold change vs veh, CNEP1R1 / RFU, BIVM-ERCC5 /// ERCC5 / Fold change vs veh, BIVM-ERCC5 /// ERCC5 / RFU, ILF3 / Fold change vs veh, ILF3 / RFU 11762660_at / Fold change /veh 11762660_at / RFU VCAN (11757783_s_at) / Fold change /veh VCAN (11757783_s_at) / RFU DDX43 (11728927_at) / Fold change /veh DDX43 (11728927_at) / RFU KRT8 (11758188_x_at) / Fold change /veh KRT8 (11758188_x_at) / RFU NKD1 (11759106_at) / Fold change /veh NKD1 (11759106_at) / RFU SRD5A1 (11742802_a_at) / Fold change /veh SRD5A1 (11742802_a_at) / RFU TPSAB1 /// TPSB2 (11721975_s_at) / Fold change /veh TPSAB1 /// TPSB2 (11721975_s_at) / RFU GSTM3 (11746129_a_at) / Fold change /veh GSTM3 (11746129_a_at) / RFU IL23R (11737362_x_at) / Fold change /veh IL23R (11737362_x_at) / RFU TMEM51 (11727254_a_at) / Fold change /veh TMEM51 (11727254_a_at) / RFU PIWIL2 (11732686_x_at) / Fold change /veh PIWIL2 (11732686_x_at) / RFU ORM1 (11744905_x_at) / Fold change /veh ORM1 (11744905_x_at) / RFU CCDC152 (11743942_at) / Fold change /veh CCDC152 (11743942_at) / RFU ECM1 (11717891_a_at) / Fold change /veh ECM1 (11717891_a_at) / RFU IL23R (11748794_a_at) / Fold change /veh IL23R (11748794_a_at) / RFU TNFAIP8L3 (11732012_x_at) / Fold change /veh TNFAIP8L3 (11732012_x_at) / RFU MBOAT4 (11741988_at) / Fold change /veh MBOAT4 (11741988_at) / RFU 11764193_at / Fold change /veh 11764193_at / RFU TMEM53 (11763286_at) / Fold change /veh TMEM53 (11763286_at) / RFU MAGEB2 (11727129_at) / Fold change /veh MAGEB2 (11727129_at) / RFU TMEM200A (11744735_a_at) / Fold change /veh TMEM200A (11744735_a_at) / RFU CCDC152 (11751479_a_at) / Fold change /veh CCDC152 (11751479_a_at) / RFU FAM211A (11726209_a_at) / Fold change /veh FAM211A (11726209_a_at) / RFU RGS16 (11746705_a_at) / Fold change /veh RGS16 (11746705_a_at) / RFU VCAN (11755009_s_at) / Fold change /veh VCAN (11755009_s_at) / RFU RHOB (11743442_s_at) / Fold change /veh RHOB (11743442_s_at) / RFU RGS16 (11720943_a_at) / Fold change /veh RGS16 (11720943_a_at) / RFU RGS16 (11720944_at) / Fold change /veh RGS16 (11720944_at) / RFU, VPS4B / Fold change vs veh, VPS4B / RFU, CREB1 / Fold change vs veh, CREB1 / RFU, DNAJC13 / Fold change vs veh, DNAJC13 / RFU, GNAQ / Fold change vs veh, GNAQ / RFU, CDK5R1 / Fold change vs veh, CDK5R1 / RFU, ZRANB3 / Fold change vs veh, ZRANB3 / RFU, CUL4A / Fold change vs veh, CUL4A / RFU, CCNY / Fold change vs veh, CCNY / RFU, UFL1 / Fold change vs veh, UFL1 / RFU, COG3 / Fold change vs veh, COG3 / RFU, DIAPH2 / Fold change vs veh, DIAPH2 / RFU, SKA2 / Fold change vs veh, SKA2 / RFU, AFF3 / Fold change vs veh, AFF3 / RFU, LMF1 / Fold change vs veh, LMF1 / RFU, IPO11 / Fold change vs veh, IPO11 / RFU, DFFB / Fold change vs veh, DFFB / RFU, FOXP1 / Fold change vs veh, FOXP1 / RFU, CARD8 / Fold change vs veh, CARD8 / RFU, STRN3 / Fold change vs veh, STRN3 / RFU, ADK / Fold change vs veh, ADK / RFU, RASSF2 / Fold change vs veh, RASSF2 / RFU, WIPF1 / Fold change vs veh, WIPF1 / RFU, LARP1B / Fold change vs veh, LARP1B / RFU, RASA1 / Fold change vs veh, RASA1 / RFU, RB1 / Fold change vs veh, RB1 / RFU, PPFIA1 / Fold change vs veh, PPFIA1 / RFU, MAT2A / Fold change vs veh, MAT2A / RFU, CCT5 / Fold change vs veh, CCT5 / RFU, WDR92 / Fold change vs veh, WDR92 / RFU, CUX1 / Fold change vs veh, CUX1 / RFU, TTC7A / Fold change vs veh, TTC7A / RFU, TMEM135 / Fold change vs veh, TMEM135 / RFU, DEPTOR / Fold change vs veh, DEPTOR / RFU, CPM / Fold change vs veh, CPM / RFU, DNAJB6 / Fold change vs veh, DNAJB6 / RFU, CACNA2D3 / Fold change vs veh, CACNA2D3 / RFU, DTX4 / Fold change vs veh, DTX4 / RFU, TFCP2 / Fold change vs veh, TFCP2 / RFU, GMCL1 /// GMCL1P1 / Fold change vs veh, GMCL1 /// GMCL1P1 / RFU, AEBP2 / Fold change vs veh, AEBP2 / RFU, SNHG1 /// SNORD22 /// SNORD25 /// SNORD26 /// SNORD27 /// SNORD28 /// SNORD29 /// SNORD31 / Fold change vs veh, SNHG1 /// SNORD22 /// SNORD25 /// SNORD26 /// SNORD27 /// SNORD28 /// SNORD29 /// SNORD31 / Fold change (Aza/veh), C12orf56 (ProbeSet 11735607_a_at) / Fold change (ACY-1035/veh), C12orf56 (ProbeSet 11735607_a_at) / Fold change (Aza/veh), FGFR1OP (ProbeSet 11751329_s_at) / Fold change (ACY-1035/veh), FGFR1OP (ProbeSet 11751329_s_at) / Fold change (Aza/veh), VPS36 (ProbeSet 11739960_a_at) / Fold change (ACY-1035/veh), VPS36 (ProbeSet 11739960_a_at) / RFU SYPL1 (11715823_x_at) / Fold change /veh SYPL1 (11715823_x_at) / RFU IGFBP7 (11715501_s_at) / Fold change /veh IGFBP7 (11715501_s_at) / RFU REEP3 (11722064_at) / Fold change /veh REEP3 (11722064_at) / RFU IGLL1 (11728026_x_at) / Fold change /veh IGLL1 (11728026_x_at): dose or concentration left out as unconfirmed
# Conditions: MV-4-11 cells, 48 hours
structure (smiles),measurement,value
Nc1ccc(-c2cccs2)cc1NC(=O)c1ccc2c(c1)cc(C1CC1)n2CCN1CCOCC1 [ACY-1035],RFU ECM1 (11717891_a_at),18.49 RFU
